In paper PMC10187093, “Synthesis, in silico modelling, and in vitro biological evaluation of substituted pyrazole derivatives as potential anti-skin cancer, anti-tyrosinase, and antioxidant agents” (Journal of Enzyme Inhibition and Medicinal Chemistry, 2023):

Molecular target: T1, mushroom tyrosinase (Agaricus bisporus, UniProt C7FF04)
T1 construct: purchased Sigma-Aldrich Chemical Company (St. Louis, MO) and MP Biomedicals (Irvine, CA)
Assay: In vitro mushroom tyrosinase inhibition assay
Format: biochemical
Conditions: 500 µM, single-concentration screen; read-out: % Inhibition of tyrosinase
Method: The anti-tyrosinase potential of all the synthesised derivatives was determined by an enzymatic tyrosinase inhibition assay based on their ability to inhibit the substrate, L-tyrosine, from binding to the tyrosinase enzyme. […] Test samples were dissolved in DMSO at a concentration of 10 mM and then diluted to different concentrations with phosphate buffer (0.1 M, pH 6.8). Each well contained 40 µL of the sample with 80 µL of phosphate buffer solution (0.1 M, pH 6.8), 40 µL of tyrosinase enzyme (100 units/mL), and 40 µL L-tyrosine (2.5 mM). The mixture was incubated for 30 min at room temperature, and absorbance was measured at 490 nm. Each sample was accompanied by a sample blank containing all components except tyrosinase. […] The percentage of tyrosinase inhibition was calculated as follows: ((ΔAcontrol – ΔAsample)/ΔAcontrol) × 100. IC50 values denoted the sample concentration required to inhibit 50% tyrosinase activity (Table S1).

T1 sequence (C7FF04 1-392 limits assumed): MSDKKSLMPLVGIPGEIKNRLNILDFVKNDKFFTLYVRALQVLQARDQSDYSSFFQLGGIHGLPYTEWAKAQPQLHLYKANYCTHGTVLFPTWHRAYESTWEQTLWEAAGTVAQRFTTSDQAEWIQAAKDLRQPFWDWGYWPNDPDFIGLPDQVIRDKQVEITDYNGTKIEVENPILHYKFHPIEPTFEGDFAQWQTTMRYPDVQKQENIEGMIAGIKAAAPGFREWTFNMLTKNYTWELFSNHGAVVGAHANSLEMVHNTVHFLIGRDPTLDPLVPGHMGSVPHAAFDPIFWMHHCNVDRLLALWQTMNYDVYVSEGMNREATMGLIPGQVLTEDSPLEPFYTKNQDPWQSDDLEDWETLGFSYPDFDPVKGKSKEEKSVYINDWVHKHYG

Row | SMILES | inhibition at 500 µM
1 | Cc1[nH]nc2c1CCc1ccccc1-2 [P5, 3-Methyl-4,5-dihydro-2H-benzo[g]indazole] | 40%
2 | Cc1cc(-c2ccccc2)n(-c2ccc(Cl)cc2)n1 [P17, 1-(4-Chlorophenyl)-3-methyl-5-phenyl-1H-pyrazole] | 95.6 ± 1.1%
3 | OC[C@H]1O[C@@H](Oc2ccc(O)cc2)[C@H](O)[C@@H](O)[C@@H]1O [arbutin, 4-hydroxyphenyl β-D-glucopyranoside, reference compound] | 59 ± 0.4%

Same assay, conditions: > 500 = not biologically relevant; read-out: IC50 Value, mushroom tyrosinase inhibition (Table S1)

Row | SMILES | IC50
4 | Cc1[nH]nc2c1CCc1ccccc1-2 [P5, 3-Methyl-4,5-dihydro-2H-benzo[g]indazole] | > 500 µM
5 | Cc1cc(-c2ccccc2)n(-c2ccc(Cl)cc2)n1 [P17, 1-(4-Chlorophenyl)-3-methyl-5-phenyl-1H-pyrazole] | 165 µM

Same assay, conditions: IC50 Value, mushroom tyrosinase inhibition (Table S1), > 500 = not biologically relevant

Row | SMILES | IC50
6 | CCOC(=O)c1c(C)nn(-c2ccccc2)c1C [P10, Ethyl 3,5-dimethyl-1-phenyl-1H-pyrazole-4-carboxylate] | > 500 µM

Same assay, conditions: read-out: % Inhibition of tyrosinase

Row | SMILES | inhibition at 500 µM
7 | CCOC(=O)c1c(C)nn(-c2ccccc2)c1C [P10, Ethyl 3,5-dimethyl-1-phenyl-1H-pyrazole-4-carboxylate] | 31%

Tested on: not listed separately
Assay: DPPH free radical scavenging assay
Conditions: not given
Method: An initial screen was done of all 25 derivatives at a concentration of 1 mM. […] Methanol was used as the diluent, and 100 µL of DPPH (200 µM; Sigma-Aldrich, St. Louis, MO) was added to each well. […] The scavenging capacity (SC) was calculated as SC% = ((ΔAcontrol – ΔAsample)/ΔAcontrol) × 100%, where ΔAcontrol was the absorbance of the reagent blank, and ΔAsample was the absorbance of the test samples. The control contained all reagents except the compounds, and all tests were performed in triplicate. Quercetin served as a positive control. The DPPH methanolic solution (1 mL) mixed with DMSO (5 µL) served as a negative control.

Row | SMILES | DPPH antioxidant activity (in words)
8 | Cc1[nH]nc2c1CCc1ccccc1-2 [P5, 3-Methyl-4,5-dihydro-2H-benzo[g]indazole] | inactivity

Same assay, conditions: 1 mM

Row | SMILES | Percent Scavenging (DPPH)
9 | O=c1c(O)c(-c2ccc(O)c(O)c2)oc2cc(O)cc(O)c12 [quercetin, reference compound] | 60%
10 | CCOC(=O)c1c(C)nn(-c2ccccc2)c1C [P10, Ethyl 3,5-dimethyl-1-phenyl-1H-pyrazole-4-carboxylate] | -11.90%
11 | Cc1[nH]nc2c1CCc1ccccc1-2 [P5, 3-Methyl-4,5-dihydro-2H-benzo[g]indazole] | -10.48%
12 | Cc1cc(-c2ccccc2)n(-c2ccc(Cl)cc2)n1 [P17, 1-(4-Chlorophenyl)-3-methyl-5-phenyl-1H-pyrazole] | -23.30%

Same assay, conditions: 1 mM; listed as Quercetin

Row | SMILES | Percent Scavenging (DPPH)
13 | O=c1c(O)c(-c2ccc(O)c(O)c2)oc2cc(O)cc(O)c12 [quercetin, reference compound] | 60.83%

Same assay, conditions: read-out: IC50 DPPH radical scavenging

Row | IC50 | SMILES
14 | 25.2 ± 1.4 µM | O=C1O[C@H]([C@@H](O)CO)C(O)=C1O [ascorbic acid, reference compound]
15 | 285 ± 7 µM | Cc1cc(C(C)(C)C)c(O)c(C(C)(C)C)c1 [BHT, butylated hydroxytoluene, reference compound]

Tested on: GFP-A431
Assay: MTT antiproliferative/cytotoxicity assay, A431
Format: cell-based, human
Conditions: Homo sapiens, A-431, 48 h, non-melanoma, MTT, 48 h; read-out: IC50 GFP-A431
Method: (§1) Human-derived GFP-expressing melanoma A375 and epidermoid carcinoma A431 cell lines were purchased from Angio-Proteomie (Boston, MA). Human melanoma carcinoma SK-MEL-28 and human immortalised keratinocytes (HaCaT) cell lines were acquired from American Type Culture Collection (ATCC; Manassas, VA). […] The growth media of incubated cells were changed every 2–3 days until they attained 70–80% confluence, after which they were sub-cultured for experiments and re-passaging. DMSO was used as the vehicle to prepare a 10 mM stock solution of the test compounds.
(§2) Stock solutions (10 mM) were prepared by dissolving each compound to be screened in DMSO.

Row | SMILES | IC50
16 | Cc1[nH]nc2c1CCc1ccccc1-2 [P5, 3-Methyl-4,5-dihydro-2H-benzo[g]indazole] | 42.1 ± 3.1 µM
17 | Cc1cc(-c2ccccc2)n(-c2ccc(Cl)cc2)n1 [P17, 1-(4-Chlorophenyl)-3-methyl-5-phenyl-1H-pyrazole] | 19.7 ± 0.8 µM

Same assay, conditions: Homo sapiens, A-431, 48 h, read-out: IC50 GFP-A431

Row | SMILES | IC50
18 | CCOC(=O)c1c(C)nn(-c2ccccc2)c1C [P10, Ethyl 3,5-dimethyl-1-phenyl-1H-pyrazole-4-carboxylate] | 196 ± 3.8 µM
19 | Cc1ccc(-c2cc(C(F)(F)F)nn2-c2ccc(S(N)(=O)=O)cc2)cc1 [Celecoxib, celecoxib, reference compound] | 7.4 µM

Same assay, conditions: IC50 HaCaT divided by IC50 A431

Row | SMILES | selectivity index (SI) A431
20 | Cc1[nH]nc2c1CCc1ccccc1-2 [P5, 3-Methyl-4,5-dihydro-2H-benzo[g]indazole] | 6.3
21 | Cc1cc(-c2ccccc2)n(-c2ccc(Cl)cc2)n1 [P17, 1-(4-Chlorophenyl)-3-methyl-5-phenyl-1H-pyrazole] | 3.7

Same assay, conditions: non-melanoma, MTT, 48 h; read-out: IC50 GFP-A431

Row | SMILES | IC50
22 | N.N.[Cl][Pt][Cl] [Cisplatin, cisplatin, reference compound] | 7.7 ± 0.3 µM

Tested on: A375
Assay: MTT antiproliferative/cytotoxicity assay, A375
Format: cell-based, human
Conditions: Homo sapiens, A-375, 48 h, melanoma, MTT, 48 h; read-out: IC50 A375
Method: (§3) Human-derived GFP-expressing melanoma A375 and epidermoid carcinoma A431 cell lines were purchased from Angio-Proteomie (Boston, MA). Human melanoma carcinoma SK-MEL-28 and human immortalised keratinocytes (HaCaT) cell lines were acquired from American Type Culture Collection (ATCC; Manassas, VA). Human cutaneous SCC cell line SCC-12[192] was generously provided by Dr. James G. Rheinwald to Dr. Tatiana Efimova. Except SK-MEL-28, which was cultured in an RPMI-1640 medium supplemented with 5% FBS, all other human immortalised cell lines were grown and maintained in DMEM containing varying percentages of FBS; 5% FBS for A431, SCC-12, and HaCaT lines, and 10% FBS for A375. All culture media were routinely supplemented with 1% PEST 100X (100 U/mL penicillin, 100 μg/mL streptomycin), and cells were cultured in incubators maintained at 37 °C under an atmosphere of 95% humidity, 20% O2, and 5% CO2. The growth media of incubated cells were changed every 2–3 days until they attained 70–80% confluence, after which they were sub-cultured for experiments and re-passaging. DMSO was used as the vehicle to prepare a 10 mM stock solution of the test compounds.
(§4) Stock solutions (10 mM) were prepared by dissolving each compound to be screened in DMSO. From these stock solutions, escalating concentrations were prepared using the corresponding cell growth media as a diluent, and the cells (65–75% confluent) were treated with (0–40 µM) or without the drug in sext- to octuplicate and incubated for 48 h. All treatment protocols and controls were prepared as previously described.
(§5) The potency and cytotoxicity of the test compounds against two cutaneous melanoma (A375 and SK-MEL-28) and two non-melanoma (A431 and SCC-12) SC cell lines in addition to a control immortalised normal human epidermal keratinocytes (HaCaT) cell line were assessed by MTT assay as previously described.

Row | SMILES | IC50
23 | Cc1[nH]nc2c1CCc1ccccc1-2 [P5, 3-Methyl-4,5-dihydro-2H-benzo[g]indazole] | 65.3 ± 4.2 µM
24 | Cc1cc(-c2ccccc2)n(-c2ccc(Cl)cc2)n1 [P17, 1-(4-Chlorophenyl)-3-methyl-5-phenyl-1H-pyrazole] | 44.5 ± 3 µM
25 | Cc1ccc(-c2cc(C(F)(F)F)nn2-c2ccc(S(N)(=O)=O)cc2)cc1 [Celecoxib, celecoxib, reference compound] | 27 µM

Same assay, conditions: Homo sapiens, A-375, 48 h, read-out: IC50 A375

Row | SMILES | IC50
26 | CCOC(=O)c1c(C)nn(-c2ccccc2)c1C [P10, Ethyl 3,5-dimethyl-1-phenyl-1H-pyrazole-4-carboxylate] | 55.3 ± 2.5 µM

Same assay, conditions: melanoma, MTT, 48 h; read-out: IC50 A375

Row | SMILES | IC50
27 | Cc1ccc(-c2cc(C(F)(F)F)nn2-c2ccc(S(N)(=O)=O)cc2)cc1 [Celecoxib, celecoxib, reference compound] | 26.8 ± 2.7 µM
28 | N.N.[Cl][Pt][Cl] [Cisplatin, cisplatin, reference compound] | 1.49 ± 0.44 µM

Tested on: HaCaT
Assay: MTT cytotoxicity assay, noncancerous HaCaT keratinocytes
Format: cell-based, human
Conditions: Homo sapiens, HaCaT, 48 h, read-out: IC50 HaCaT
Method: as §3, §4, §5

Row | SMILES | IC50
29 | CCOC(=O)c1c(C)nn(-c2ccccc2)c1C [P10, Ethyl 3,5-dimethyl-1-phenyl-1H-pyrazole-4-carboxylate] | 68 ± 1.2 µM

Same assay, conditions: Homo sapiens, HaCaT; control noncancerous keratinocytes, MTT, 48 h; read-out: IC50 HaCaT

Row | SMILES | IC50
30 | Cc1[nH]nc2c1CCc1ccccc1-2 [P5, 3-Methyl-4,5-dihydro-2H-benzo[g]indazole] | 265 ± 4.3 µM
31 | Cc1cc(-c2ccccc2)n(-c2ccc(Cl)cc2)n1 [P17, 1-(4-Chlorophenyl)-3-methyl-5-phenyl-1H-pyrazole] | 72.4 ± 6 µM
32 | Cc1ccc(-c2cc(C(F)(F)F)nn2-c2ccc(S(N)(=O)=O)cc2)cc1 [Celecoxib, celecoxib, reference compound] | 49.8 ± 8.2 µM

Same assay, conditions: control noncancerous keratinocytes, MTT, 48 h; read-out: IC50 HaCaT

Row | SMILES | IC50
33 | N.N.[Cl][Pt][Cl] [Cisplatin, cisplatin, reference compound] | 3.4 ± 0.4 µM

Tested on: SCC-12
Assay: MTT antiproliferative/cytotoxicity assay, SCC-12
Format: cell-based, human
Conditions: Homo sapiens, SCC12, 48 h, non-melanoma, MTT, 48 h; read-out: IC50 SCC-12
Method: as §1, §2

Row | SMILES | IC50
34 | Cc1[nH]nc2c1CCc1ccccc1-2 [P5, 3-Methyl-4,5-dihydro-2H-benzo[g]indazole] | 77.6 ± 1.7 µM
35 | Cc1cc(-c2ccccc2)n(-c2ccc(Cl)cc2)n1 [P17, 1-(4-Chlorophenyl)-3-methyl-5-phenyl-1H-pyrazole] | 23.4 ± 1.7 µM

Same assay, conditions: Homo sapiens, SCC12, 48 h, read-out: IC50 SCC-12

Row | SMILES | IC50
36 | CCOC(=O)c1c(C)nn(-c2ccccc2)c1C [P10, Ethyl 3,5-dimethyl-1-phenyl-1H-pyrazole-4-carboxylate] | 49.1 ± 2 µM

Same assay, conditions: IC50 HaCaT divided by IC50 SCC-12

Row | SMILES | selectivity index (SI) SCC-12
37 | Cc1[nH]nc2c1CCc1ccccc1-2 [P5, 3-Methyl-4,5-dihydro-2H-benzo[g]indazole] | 3.4
38 | Cc1cc(-c2ccccc2)n(-c2ccc(Cl)cc2)n1 [P17, 1-(4-Chlorophenyl)-3-methyl-5-phenyl-1H-pyrazole] | 3.1

Same assay, conditions: non-melanoma, MTT, 48 h; read-out: IC50 SCC-12

Row | SMILES | IC50
39 | N.N.[Cl][Pt][Cl] [Cisplatin, cisplatin, reference compound] | 4.4 ± 0.2 µM

Tested on: SK-MEL-28
Assay: MTT antiproliferative/cytotoxicity assay, SK-MEL-28
Format: cell-based, human
Conditions: Homo sapiens, SK-MEL-28, 48 h, melanoma, MTT, 48 h; read-out: IC50 SKMEL-28
Method: as §3, §4, §5

Row | SMILES | IC50
40 | Cc1[nH]nc2c1CCc1ccccc1-2 [P5, 3-Methyl-4,5-dihydro-2H-benzo[g]indazole] | 131 ± 2.4 µM
41 | Cc1cc(-c2ccccc2)n(-c2ccc(Cl)cc2)n1 [P17, 1-(4-Chlorophenyl)-3-methyl-5-phenyl-1H-pyrazole] | 34.2 ± 3.9 µM

Same assay, conditions: Homo sapiens, SK-MEL-28, 48 h, read-out: IC50 SKMEL-28

Row | SMILES | IC50
42 | CCOC(=O)c1c(C)nn(-c2ccccc2)c1C [P10, Ethyl 3,5-dimethyl-1-phenyl-1H-pyrazole-4-carboxylate] | 43.7 ± 2.7 µM

Same assay, conditions: Homo sapiens, SK-MEL-28; melanoma, MTT, 48 h; read-out: IC50 SKMEL-28

Row | SMILES | IC50
43 | Cc1ccc(-c2cc(C(F)(F)F)nn2-c2ccc(S(N)(=O)=O)cc2)cc1 [Celecoxib, celecoxib, reference compound] | 11.4 ± 2.4 µM

Same assay, conditions: melanoma, MTT, 48 h; read-out: IC50 SKMEL-28

Row | SMILES | IC50
44 | N.N.[Cl][Pt][Cl] [Cisplatin, cisplatin, reference compound] | 14.2 ± 0.24 µM
